{"source": "patent US8163785B2", "about": "“Pyrazolo[5,1b]oxazole derivatives as CRF-1 receptor antagonists” (Novartis AG, priority 2010, dated 2012)", "target": "T1, human recombinant CRF-1 receptor (Homo sapiens, UniProt P34998)", "T1 construct": "expressed in transfected cells; host or cells: Chinese hamster ovary (CHO) cells, G418-selected", "T1 sequence (P34998 24-415)": "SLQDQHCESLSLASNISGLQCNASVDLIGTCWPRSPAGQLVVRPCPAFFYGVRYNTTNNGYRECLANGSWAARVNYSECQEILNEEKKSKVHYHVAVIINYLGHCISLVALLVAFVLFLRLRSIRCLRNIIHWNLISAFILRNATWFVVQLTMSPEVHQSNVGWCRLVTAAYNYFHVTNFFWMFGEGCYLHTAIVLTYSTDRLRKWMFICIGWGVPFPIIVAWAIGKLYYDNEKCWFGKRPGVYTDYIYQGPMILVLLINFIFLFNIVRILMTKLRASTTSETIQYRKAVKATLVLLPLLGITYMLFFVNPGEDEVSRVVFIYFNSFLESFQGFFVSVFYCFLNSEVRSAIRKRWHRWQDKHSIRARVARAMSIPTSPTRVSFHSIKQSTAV", "assay": "CRF-1 receptor antagonism, HTRF cAMP assay in CHO cells in the presence of 1 nM CRF", "format": "cell-based", "settings": "CHO cells expressing human recombinant CRF-1; inhibition of the effect of 1 nM CRF on cAMP; read-out: hCRF1ANTAG/IC50", "experimental": "The CRF-1 or CRF-2a receptor activity of the agents of the invention has been determined in vitro in the following way:\nChinese hamster ovary (CHO) cells expressing either the human recombinant CRF-1 or CRF-2a receptors (Chen et al., Proc Natl Acad Sci USA 90, 8967-8971, 1993; Liaw et al., Endocrinology 137, 72-77, 1996) are propagated in Dulbecco's modified Eagle medium supplemented with 10% foetal calf serum, non-essential amino acids, 100 U/ml penicillin, 100 mg/l streptomycin and 1 g/l geneticin (G418). For cyclic AMP determinations the Homogeneous Time-Resolved Fluoresce (HTRF) cAMP dynamic 2 kit (Cishbio International, France) was used as per manufacturers' instructions. CHO cells, previously cryopreserved, were thawed, centrifuged for 7 mins at 1200 rpm and resuspended in serum free media, then pipetted out onto clear bottomed black tissue culture treated 384-well microtitre plates (Corning Inc, US) at 2,000 cells per well. […] The plate is read on the Pherastar (BMG, Germany). […] Values represented by a change in arbitrary fluorescence units are converted into cAMP concentrations by use of a standard curve the reagents for which are supplied with the kit. […] IC50 values of antagonists are calculated by fitting the percent inhibition of the effect of CRF by increasing concentrations of the antagonists. […]", "data": [{"compound": "Cc1nc(C)n(-c2c(C)nn3c(-c4ccc(OC(F)F)cc4C)c(C)oc23)n1", "note": "[Example 1, 3-(4-(Difluoromethoxy)-2-methylphenyl)-7-(3,5-dimethyl-1H-1,2,4-triazol-1-yl)-2,6-dimethylpyrazolo[5,1-b]oxazole]", "values": [{"measurement": "IC50", "result": 71, "unit": "nM"}]}]}
